This note sets out measurements from PubChem BioAssay (NCI).

Assay in all cases: NCI tumour cell line growth inhibition, 48 h
Experiment [1] deals with K-562 leukemia.
For experiment [2], the system named is NCI-H522 lung.
Experiment [3] deals with DU-145 prostate.
The subject of experiment [4] is MDA-MB-231 breast.
For experiment [5], the system named is HCC-2998 colon.
Experiment [6] relates to M14 melanoma.
The subject of experiment [7] is HL-60(TB) leukemia.
Experiment [8] deals with SR leukemia.
Experiment [9] relates to P388 leukemia.
Experiment [10] concerns KM20L2 colon.
The test system of experiment [11] is P388/ADR leukemia.
In experiment [12] the test system is XF 498 CNS.
For experiment [13], the system named is HOP-18 NSCLC.

Several values for one entry are separate records, joined by “and”; a condition that tells them apart may be missing. Identical values can stand only once.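 How tested: cells in 96-well plates exposed to compound for 48 hours at five concentrations. Abbreviation: GI50, concentration required for 50% inhibition of growth. TGI is the concentration that stops growth completely.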

On to `N=C(N)C(N=Nc1ccccc1)C(=N)N` (centres undefined), for which the TGI in [1] was 99.1 µM; in [2] it was over 100 µM; in [3], over 100 µM; in [4], 97.8 µM; in [5] it was 32.9 µM; in experiment [6], over 100 µM. The compound further registered a TGI in experiment [7] of 54.2 µM.

On to `CN1CCN(CCCOc2ccc3ncnc(Nc4ccc(Oc5cccc(C(F)(F)F)c5)c(Cl)c4)c3c2)CC1`, for which the GI50 was 1.17 µM in experiment [1]; 1.66 µM in experiment [3]; 1.72 µM in [4]; 1.55 µM in experiment [5]; 1.87 µM in experiment [6]; 1.89 µM in [7]. Moreover, the TGI in [1] amounted to 4 µM; in [3] it was 3.49 µM; in [4] it was 3.15 µM; in experiment [5], 3.16 µM; in experiment [6], 3.87 µM; in [7] it was 4.52 µM.

Regarding `C=C1C(C2(C)C=CC(=O)OC3(C)COC(=O)CC32)C(OC=O)C(OC(=O)C(O)C(C)CC)C2(C)C(c3ccoc3)CC(OC(C)=O)C12O` (centres undefined), the TGI in experiment [1], in [2], in experiment [8], in experiment [3], in experiment [4] and in [5] was over 100 µM throughout. The TGI is over 100 µM in experiment [6] and 9.41 µM in experiment [7].

With `CC(=O)OCCC[C@@H]1C(=C(C)C)CCC2[C@@]1(C)CC[C@@]1(C)C[C@](C)(CCC=C(C)C)CC[C@]21C` (some centres undefined), the TGI in experiment [2], in experiment [3], in experiment [4], in [5], in experiment [6] and in experiment [7] was over 100 µM each time.

Consider `O=C1CC(n2cccc2)c2cc(Br)sc21` (centres undefined), for which the TGI in experiment [1] is over 100 µM; in [2] it was 75.5 µM; in experiment [8], over 100 µM; in [3], over 100 µM; in [4] it was over 100 µM; in experiment [6] it was over 100 µM. The TGI in [7] was over 100 µM.

Consider `S=C(NCCCCCCNC(=S)Nc1c2ccccc2nc2ccccc12)Nc1c2ccccc2nc2ccccc12`, for which the TGI in experiment [1], in experiment [2], in [9], in experiment [10], in [11] and in [5] was over 100 µM each time. The TGI in experiment [12], in [13] and in [7] was over 100 µM each time.

Regarding `CCCCC1Cc2cc(OC)ccc2-c2nc3cc(OC)ccc3n21` (centres undefined) (tested in a mixture with another compound), the TGI amounted to 36.8 µM in [1]; 21.1 µM in [2]; 32.1 µM in [8]; 30 µM in experiment [3]; 25.7 µM in [4]; 28.2 µM in [6]. For the same compound, the TGI in [7] was determined as 34.9 µM.

For the compound `CCN(CC)/C(=C\Cl)Nc1ccccn1`, the TGI in [1], in experiment [2], in experiment [10], in experiment [5], in experiment [12] and in [13] was over 100 µM throughout. Further, the TGI in experiment [6] and in experiment [7] was over 100 µM each time.

Consider `C[N+]1(C)C2CCC1CC(OC(=O)C(CO)c1ccccc1)C2` (centres undefined), for which the TGI in experiment [1], in experiment [2], in experiment [8], in [3], in experiment [4] and in experiment [6] was over 100 µM in each case.

As to `Cc1c2c(cc3c1[nH]c1ccccc13)C(c1ccc(F)cc1)=NCC2`, the TGI in [1] was found to be 5.93 µM; in [2], 3.85 µM; in experiment [9], 1.97 µM; in experiment [10], 5.52 µM; in [11] it was 5 µM; in experiment [5], 2.8 µM. Besides, the TGI in experiment [12] is 5.67 µM; in [13], 14.5 µM; in [7] it was 1.57 µM.

With `NC(=Nc1ccc(Cl)c(Cl)c1)c1ccccc1N`, the TGI was 41.9 µM in [1]; 32.6 µM in experiment [2]; over 100 µM in experiment [3]; over 100 µM in [4]; 34.2 µM in experiment [5]; 41.4 µM in experiment [6]. In addition, in experiment [7], the TGI was 52 µM.

For the compound `OC1C=C2C3CN(Cc4cc5c(cc43)OCO5)[C@H]2C[C@@H]1O` (some centres undefined), the TGI in [1] was over 100 µM; in experiment [2] it was over 100 µM; in experiment [8], over 100 µM; in [3] it was 71.2 µM; in experiment [4], 68.5 µM; in experiment [6] it was 25 µM. The compound further had a TGI in [7] of 19.3 µM.

Take `O=C1OC(c2ccccc2)=N/C1=C/c1cccs1`: the TGI in [1] was over 100 µM; in experiment [8], over 100 µM; in [5], over 100 µM; in experiment [6], over 100 µM; in experiment [7] it was 44.5 µM.

Regarding `COC1(OC)C[C@H](C)[C@@]23O[C@]24c2cc(O)c5c(c2N[C@H]3C#C/C=C\C#C[C@]14O)C(=O)c1ccccc1C5=O`, the GI50 in [1] was 0.00399 µM; in [2], 0.0088 µM; in experiment [3], 0.00164 µM; in experiment [4], 0.0199 µM; in experiment [5], 0.0197 µM; in experiment [6] it was 0.00194 µM. Moreover, the GI50 in experiment [7] was under 0.001 µM. The TGI in experiment [1] was 0.101 µM and 0.201 µM; in experiment [2], 0.0664 µM and 0.0606 µM; in experiment [3] it was 0.00686 µM and 0.048 µM; in experiment [5], 0.0855 µM and 0.0544 µM; in [6] it was 0.0176 µM and 0.0111 µM; in experiment [7], 0.00105 µM.

As to `O=C1c2ccccc2-c2ccc(O)cc21`, the TGI in experiment [1] was found to be 94.7 µM; in [2], 32.9 µM; in [8], 29.7 µM; in [3], 49.1 µM; in experiment [4], 44.2 µM; in [6], 72.7 µM. For the same compound, in experiment [7], the TGI worked out at 75.4 µM.

Turning to `CO[C@@]12C[C@@H](CNC(=O)c3cc(Br)c[nH]3)O[C@@H]1NC(=O)N2`, the TGI in [2], in experiment [3], in experiment [4] and in experiment [6] was over 100 µM throughout.

For `COc1ccc(/C=c2/[nH]c(=O)/c(=C\c3ccc(OCc4ccccc4)cn3)[nH]c2=O)cc1`, the TGI in [1], in experiment [2], in [8], in experiment [3], in [4] and in experiment [5] was over 100 µM in each case. The TGI in experiment [6] and in experiment [7] was over 100 µM each time.

On to `O=C1c2scnc2-c2nccc3c2c1nc1ccccc13`, for which the TGI is over 100 µM in [1]; over 100 µM in experiment [2]; over 100 µM in [8]; 3.14 µM in [3]; 2.48 µM in experiment [5].

In the case of `COc1nc(C#CCCCC#N)nc(OC)n1`, the TGI in [1] was over 100 µM; in experiment [2] it was 29.4 µM; in experiment [8], over 100 µM; in experiment [3], 23.3 µM; in experiment [4], 29.3 µM; in experiment [6], 47.8 µM. In experiment [7], this compound came in with a TGI of 71.6 µM.

As for `CCn1cc(C(=O)O)c(=O)c2cc(F)c(N3CCN(Cn4c(O)c(N=NC(=O)c5ccncc5)c5cc(Cl)ccc54)CC3)cc21`, the TGI in experiment [1] is over 100 µM; in [2] it was 63.6 µM; in experiment [8], 31 µM; in experiment [3], over 100 µM; in experiment [4] it was over 100 µM; in experiment [5], over 100 µM. Further, the TGI in experiment [6] was over 100 µM; in [7], 37 µM.

`CN1CCC23c4ccccc4NC1C21CCN(C)C3Nc2ccccc21`: the TGI in experiment [1] is over 187 µM; in experiment [2], over 375 µM; in experiment [9], over 124 µM; in experiment [10] it was over 350 µM; in experiment [11] it was over 375 µM; in experiment [5] it was over 375 µM. Further, the TGI in [13] is over 375 µM; in experiment [7], 109 µM.

Take `CC(=O)C1(c2ccccc2)CCCN(C)CC1` (centres undefined): the TGI in [8], in experiment [3], in [4], in [5] and in experiment [6] was over 100 µM each time.

With `O=C1CS(=O)(=O)C(c2cccc(Oc3ccccc3)c2)N1c1cccc(Cl)c1Cl` (centres undefined), the TGI in experiment [1] was 46 µM; in experiment [2], 39.4 µM; in experiment [8], 52 µM; in experiment [3], over 100 µM; in experiment [4], 70.6 µM; in experiment [6] it was over 100 µM. In experiment [7], this compound returned a TGI of 82.9 µM.

Regarding `O=c1c2c([nH]c3nccn13)CCCC2`, the TGI in [2], in [8], in experiment [3], in experiment [4], in experiment [5] and in [6] was over 10 µM each time. Besides, in experiment [7], the TGI was over 10 µM.

Consider `COc1ccc(OC)c2sc(N3C(=O)/C(=C/c4ccccc4S)N=C3c3ccccc3)nc12`, for which the TGI in experiment [1] is over 100 µM; in experiment [8], 35.2 µM; in [3], over 100 µM; in [4], over 100 µM; in [5], over 100 µM; in experiment [6], over 100 µM. Also, the TGI in experiment [7] is 79.3 µM.

For `Cc1c(N)nc([C@H](CC(N)=O)NC[C@H](N)C(N)=O)nc1C(=O)N[C@H](C(=O)N[C@H](C)[C@@H](O)[C@H](C)C(=O)N[C@H](C(=O)NCCc1nc(-c2nc(C(=O)NCCC[S+](C)C)cs2)cs1)[C@@H](C)O)C(OC1OC(CO)C(O)C(O)C1OC1OC(CO)C(O)C(OC(N)=O)C1O)c1cnc[nH]1` (some centres undefined), the TGI is 20.2 µM and 5.4 µM and 30 µM in [3]; 25 µM and > 100 µM in experiment [4]; 18.5 µM in experiment [9]; 24.3 µM and 29 µM in [10]; 20 µM in experiment [11]; 13.5 µM in experiment [12]. In addition, in [13], the TGI came out at 13.3 µM. In addition, in experiment [4], the GI50 is 23.3 µM and 78.8 µM.

As for `O=C(O)C(Cc1ccccc1)N1C(=O)c2ccccc2C1=O` (centres undefined), the TGI in [1], in experiment [2], in [3], in experiment [4], in [5] and in experiment [6] was over 100 µM in each case. The compound also yielded a TGI in experiment [7] of 10.8 µM.
